Legend:
SR = experiment: Cytotoxicity against human SR cells assessed as cell growth at 10 uM after 48 hrs by MTT assay; format: functional; conditions: read-out: Activity
SW-620 = experiment: Cytotoxicity against human SW620 cells assessed as cell growth at 10 uM after 48 hrs by MTT assay; format: functional; conditions: SW-620, 48 h, read-out: Activity
KM12 = experiment: Cytotoxicity against human KM12 cells assessed as cell growth at 10 uM after 48 hrs by MTT assay; format: functional; conditions: KM12, 48 h, read-out: Activity
MDA-MB-435 = experiment: Cytotoxicity against human MDA-MB-435 cells assessed as cell growth at 10 uM after 48 hrs by MTT assay; format: functional; conditions: MDA-MB-435, 48 h, read-out: Activity
[1] = Cytotoxicity against human Hs 578T cells assessed as cell growth at 10 uM after 48 hrs by MTT assay; format: functional; conditions: read-out: Activity
BT-549 = experiment: Cytotoxicity against human BT549 cells assessed as cell growth at 10 uM after 48 hrs by MTT assay; format: functional; conditions: BT-549, 48 h, read-out: Activity
UACC-257 = experiment: Cytotoxicity against human UACC257 cells assessed as cell growth at 10 uM after 48 hrs by MTT assay; format: functional; conditions: UACC-257, 48 h, read-out: Activity
HOP-62 = experiment: Cytotoxicity against human HOP62 cells assessed as cell growth at 10 uM after 48 hrs by MTT assay; format: functional; conditions: HOP-62, 48 h, read-out: Activity
HT-29 = experiment: Cytotoxicity against human HT-29 cells assessed as cell growth at 10 uM after 48 hrs by MTT assay; format: functional; conditions: HT-29, 48 h, read-out: Activity
U-251 = experiment: Cytotoxicity against human U251 cells assessed as cell growth at 10 uM after 48 hrs by MTT assay; format: functional; conditions: U-251, 48 h, read-out: Activity
UO-31 = experiment: Cytotoxicity against human UO31 cells assessed as cell growth at 10 uM after 48 hrs by MTT assay; format: functional; conditions: UO-31, 48 h, read-out: Activity
SK-MEL-5 = experiment: Cytotoxicity against human SK-MEL-5 cells assessed as cell growth at 10 uM after 48 hrs by MTT assay; format: functional; conditions: SK-MEL-5, 48 h, read-out: Activity
SF-539 = experiment: Cytotoxicity against human SF539 cells assessed as cell growth at 10 uM after 48 hrs by MTT assay; format: functional; conditions: SF-539, 48 h, read-out: Activity
MDA-MB-468 = experiment: Cytotoxicity against human MDA-MB-468 cells assessed as cell growth at 10 uM after 48 hrs by MTT assay; format: functional; conditions: MDA-MB-468, 48 h, read-out: Activity
M14 = experiment: Cytotoxicity against human M14 cells assessed as cell growth at 10 uM after 48 hrs by MTT assay; format: functional; conditions: M14, 48 h, read-out: Activity
OVCAR-8 = experiment: Cytotoxicity against human OVCAR8 cells assessed as cell growth at 10 uM after 48 hrs by MTT assay; format: functional; conditions: OVCAR-8, 48 h, read-out: Activity
MCF7 = experiment: Cytotoxicity against human MCF7 cells assessed as cell growth at 10 uM after 48 hrs by MTT assay; format: functional; conditions: MCF7, 48 h, read-out: Activity
RXF 393 = experiment: Cytotoxicity against human […] cells assessed as cell growth at 10 uM after 48 hrs by MTT assay; format: functional; conditions: RXF 393, 48 h, read-out: Activity
[2] = biological target: Cyclin-dependent kinase 2/cyclin A (Homo sapiens) (UniProt P24941+P20248+P78396); experiment: Inhibition of human CDK2/Cyclin A assessed as residual enzyme activity at 0.3 uM after 40 mins by scintillation counting; format: protein-complex assay
NCI-H460 = experiment: Cytotoxicity against human NCI-H460 cells assessed as cell growth at 10 uM after 48 hrs by MTT assay; format: functional; conditions: NCI-H460, 48 h, read-out: Activity
PC-3 = experiment: Cytotoxicity against human PC3 cells assessed as cell growth at 10 uM after 48 hrs by MTT assay; format: functional; conditions: PC-3, 48 h, read-out: Activity
LOX IMVI = experiment: Cytotoxicity against human LOXIMVI cells assessed as cell growth at 10 uM after 48 hrs by MTT assay; format: functional; conditions: read-out: Activity
SF-295 = experiment: Cytotoxicity against human SF295 cells assessed as cell growth at 10 uM after 48 hrs by MTT assay; format: functional; conditions: SF-295, 48 h, read-out: Activity
A549 = experiment: Cytotoxicity against human A549 cells assessed as cell growth at 10 uM after 48 hrs by MTT assay; format: functional; conditions: A549, 48 h, read-out: Activity
CCRF-CEM = experiment: Cytotoxicity against human CCRF-CEM cells assessed as cell growth at 10 uM after 48 hrs by MTT assay; format: functional; conditions: read-out: Activity
K562 = experiment: Cytotoxicity against human K562 cells assessed as cell growth at 10 uM after 48 hrs by MTT assay; format: functional; conditions: K562, 48 h, read-out: Activity
[3] = biological target: Glycogen synthase kinase-3 beta (Homo sapiens) (UniProt P49841); experiment: Inhibition of human GSK3-beta assessed as residual enzyme activity at 0.01 uM after 40 mins by scintillation counting
Chain of Glycogen synthase kinase-3 beta (Homo sapiens) (P49841 whole entry, looked up): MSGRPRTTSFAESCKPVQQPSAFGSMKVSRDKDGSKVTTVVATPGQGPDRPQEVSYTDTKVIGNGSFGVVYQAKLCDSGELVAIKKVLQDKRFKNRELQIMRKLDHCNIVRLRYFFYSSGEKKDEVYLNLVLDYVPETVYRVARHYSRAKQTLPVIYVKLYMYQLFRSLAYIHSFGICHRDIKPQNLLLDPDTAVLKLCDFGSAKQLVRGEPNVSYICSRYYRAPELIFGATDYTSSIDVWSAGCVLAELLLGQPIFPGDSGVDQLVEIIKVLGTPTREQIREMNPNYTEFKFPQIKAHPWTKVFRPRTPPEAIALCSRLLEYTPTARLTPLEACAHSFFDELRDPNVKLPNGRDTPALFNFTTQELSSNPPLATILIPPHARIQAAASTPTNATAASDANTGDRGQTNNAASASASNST

T47D = experiment: Cytotoxicity against human T47D cells assessed as cell growth at 10 uM after 48 hrs by MTT assay; format: functional; conditions: read-out: Activity
HL-60(TB) = experiment: Cytotoxicity against human HL-60(TB) cells assessed as cell growth at 10 uM after 48 hrs by MTT assay; format: functional; conditions: HL-60, 48 h, read-out: Activity
NCI-H322M = experiment: Cytotoxicity against human NCI-H322M cells assessed as cell growth at 10 uM after 48 hrs by MTT assay; format: functional; conditions: read-out: Activity
ACHN = experiment: Cytotoxicity against human ACHN cells assessed as cell growth at 10 uM after 48 hrs by MTT assay; format: functional; conditions: read-out: Activity
SK-MEL-2 = experiment: Cytotoxicity against human SK-MEL-2 cells assessed as cell growth at 10 uM after 48 hrs by MTT assay; format: functional; conditions: SK-MEL-2, 48 h, read-out: Activity
A498 = experiment: Cytotoxicity against human A498 cells assessed as cell growth at 10 uM after 48 hrs by MTT assay; format: functional; conditions: A498, 48 h, read-out: Activity
[4] = biological target: Glycogen synthase kinase-3 beta (Homo sapiens) (UniProt P49841); experiment: Inhibition of human GSK3-beta assessed as residual enzyme activity at 0.3 uM after 40 mins by scintillation counting
RPMI-8226 = experiment: Cytotoxicity against human RPMI8226 cells assessed as cell growth at 10 uM after 48 hrs by MTT assay; format: functional; conditions: RPMI-8226, 48 h, read-out: Activity
OVCAR-5 = experiment: Cytotoxicity against human OVCAR5 cells assessed as cell growth at 10 uM after 48 hrs by MTT assay; format: functional; conditions: OVCAR-5, 48 h, read-out: Activity
EKVX = experiment: Cytotoxicity against human EKVX cells assessed as cell growth at 10 uM after 48 hrs by MTT assay; format: functional; conditions: read-out: Activity
NCI-H226 = experiment: Cytotoxicity against human NCI-H226 cells assessed as cell growth at 10 uM after 48 hrs by MTT assay; format: functional; conditions: NCI-H226, 48 h, read-out: Activity

Compound: O=C1Nc2ncccc2/C1=C1/Nc2ccccc2C1=O
- growth at 10 µM (SR): 82.5%
- growth at 10 µM (SW-620): 102%
- growth at 10 µM (KM12): 89.5%
- growth at 10 µM (MDA-MB-435): 92.8%
- growth at 10 µM [1]: 72.5%
- growth at 10 µM (BT-549): 70.6%
- growth at 10 µM (UACC-257): 96.5%
- growth at 10 µM (HOP-62): 68.8%
- growth at 10 µM (HT-29): 93.8%
- growth at 10 µM (U-251): 88.2%
- growth at 10 µM (UO-31): 46.2%
- growth at 10 µM (SK-MEL-5): 75.4%
- growth at 10 µM (SF-539): 90.9%
- growth at 10 µM (MDA-MB-468): 42.8%
- growth at 10 µM (M14): 93.8%
- growth at 10 µM (OVCAR-8): 84.4%
- growth at 10 µM (MCF7): 41%
- growth at 10 µM (RXF 393): 71.2%
- Activity [2]: 99%
- growth at 10 µM (NCI-H460): 47.7%
- growth at 10 µM (PC-3): 73%
- growth at 10 µM (LOX IMVI): 76.3%
- growth at 10 µM (SF-295): 102%
- growth at 10 µM (A549): 82.3%
- growth at 10 µM (CCRF-CEM): 88.4%
- growth at 10 µM (K562): 85.5%
- Activity [3]: 96%
- growth at 10 µM (T47D): 48.4%
- growth at 10 µM (HL-60(TB)): 173%
- growth at 10 µM (NCI-H322M): 79.7%
- growth at 10 µM (ACHN): 51.5%
- growth at 10 µM (SK-MEL-2): 43.4%
- growth at 10 µM (A498): 117%
- Activity [4]: 93%
- growth at 10 µM (RPMI-8226): 75.4%
- growth at 10 µM (OVCAR-5): 77.7%
- growth at 10 µM (EKVX): 30.6%
- growth at 10 µM (NCI-H226): 89%

Compound: CN1C(=O)/C(=C2/C(=O)N(C)c3ncccc32)c2cccnc21
- growth at 10 µM (SR): 124%
- growth at 10 µM (SW-620): 109%
- growth at 10 µM (KM12): 110%
- growth at 10 µM (MDA-MB-435): 101%
- growth at 10 µM [1]: 115%
- growth at 10 µM (BT-549): 81.8%
- growth at 10 µM (UACC-257): 102%
- growth at 10 µM (HOP-62): 91.1%
- growth at 10 µM (HT-29): 99.5%
- growth at 10 µM (U-251): 95.8%
- growth at 10 µM (UO-31): 88.3%
- growth at 10 µM (SK-MEL-5): 102%
- growth at 10 µM (SF-539): 117%
- growth at 10 µM (MDA-MB-468): 95.5%
- growth at 10 µM (M14): 92.7%
- growth at 10 µM (OVCAR-8): 88.8%
- growth at 10 µM (MCF7): 114%
- growth at 10 µM (RXF 393): 101%
- Activity [2]: 114%
- growth at 10 µM (NCI-H460): 121%
- growth at 10 µM (PC-3): 100%
- growth at 10 µM (LOX IMVI): 101%
- growth at 10 µM (SF-295): 98.9%
- growth at 10 µM (A549): 101%
- growth at 10 µM (CCRF-CEM): 89.4%
- growth at 10 µM (K562): 137%
- Activity [3]: 94%
- growth at 10 µM (T47D): 109%
- growth at 10 µM (HL-60(TB)): 183%
- growth at 10 µM (NCI-H322M): 96.5%
- growth at 10 µM (ACHN): 94.6%
- growth at 10 µM (SK-MEL-2): 83.5%
- growth at 10 µM (A498): 120%
- Activity [4]: 105%
- growth at 10 µM (RPMI-8226): 105%
- growth at 10 µM (OVCAR-5): 86.7%
- growth at 10 µM (EKVX): 98.4%
- growth at 10 µM (NCI-H226): 102%

Compound: O=C1Nc2ncccc2/C1=C1/Nc2ccccc2/C1=N\O
- growth at 10 µM (SR): 32.8%
- growth at 10 µM (SW-620): 82.8%
- growth at 10 µM (KM12): 15%
- growth at 10 µM (MDA-MB-435): 72.6%
- growth at 10 µM [1]: -9.72%
- growth at 10 µM (BT-549): 45.2%
- growth at 10 µM (UACC-257): 92.6%
- growth at 10 µM (HOP-62): 45.9%
- growth at 10 µM (HT-29): 102%
- growth at 10 µM (U-251): 87.3%
- growth at 10 µM (UO-31): 10.6%
- growth at 10 µM (SK-MEL-5): 72.3%
- growth at 10 µM (SF-539): 50.3%
- growth at 10 µM (MDA-MB-468): 28.4%
- growth at 10 µM (M14): 56.4%
- growth at 10 µM (OVCAR-8): 79.6%
- growth at 10 µM (MCF7): 87.8%
- growth at 10 µM (RXF 393): 29.4%
- Activity [2]: 100%
- growth at 10 µM (NCI-H460): 52.2%
- growth at 10 µM (PC-3): 67.7%
- growth at 10 µM (LOX IMVI): 44.5%
- growth at 10 µM (SF-295): 94.9%
- growth at 10 µM (A549): 46.6%
- growth at 10 µM (CCRF-CEM): 84.8%
- growth at 10 µM (K562): 53.2%
- Activity [3]: 88%
- growth at 10 µM (T47D): 49.1%
- growth at 10 µM (HL-60(TB)): 125%
- growth at 10 µM (NCI-H322M): 30.7%
- growth at 10 µM (ACHN): 22.6%
- growth at 10 µM (SK-MEL-2): 14.7%
- growth at 10 µM (A498): -11.7%
- Activity [4]: 64%
- growth at 10 µM (RPMI-8226): 69.5%
- growth at 10 µM (OVCAR-5): 87.7%
- growth at 10 µM (EKVX): 35.5%
- growth at 10 µM (NCI-H226): 78.6%

From ChEMBL document CHEMBL1154822, “Synthesis and antiproliferative activity of 7-azaindirubin-3'-oxime, a 7-aza isostere of the natural indirubin pharmacophore” (J Nat Prod, 2009)
